In the supplement of paper PMC10920090:

Assays:
[1] = system: MDA-MB-231; assay: drug sensitivity score (DSS), cytotoxicity CellTox Green; higher = more cytotoxic; extreme values may be limits of the assay; details: 72 h
[2] = system: MDA-MB-231; assay: drug sensitivity score (DSS), cell viability CellTiter-Glo; higher = more sensitive; extreme values may be limits of the assay; details: 72 h
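For drug sensitivity score (DSS), cytotoxicity CellTox Green in this document: DSS summarises each dose–response curve by combining IC50, EC50, maximal inhibition and efficacy across drug concentrations.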

SMILES | drug sensitivity score ([1]; shRNA: shPPFIA1_1) [DSS] | drug sensitivity score ([1]; shRNA: shScramble) [DSS] | drug sensitivity score ([2]; shRNA: shPPFIA1_1) [DSS] | drug sensitivity score ([2]; shRNA: shScramble) [DSS]
O=C1NC(=O)/C(=C/c2ccc3nccc(-c4ccncc4)c3c2)S1 | 0 | 0 | 0 | 4.3
CNC(=O)c1ccccc1Nc1nc(Nc2ccc3c(c2OC)CCC[C@H](N2CCN(CCO)CC2)C3)ncc1Cl | 8.9 | 0 | 4 | 6.1
O=C(O)c1ccc(-c2c[nH]c3ncc(-c4ccccc4)cc23)cc1C1CCCC1 | 0 | 0 | 0 | 0
CNC(=O)c1cc(Oc2ccc(NC(=O)Nc3cc(C(C)(C)C)nn3-c3ccc4ncccc4c3)c(F)c2)ccn1 [Rebastinib] | 0 | 0 | 0 | 0
Cc1ccc(C(=O)Nc2ccc(Oc3cc4cnn(C)c4cc3-c3cn[nH]c3)c(F)c2)c(=O)n1-c1ccc(F)cc1 [Merestinib] | 0 | 0 | 9 | 0
C[C@]12C=CC(=O)C=C1CC[C@@H]1[C@@H]2[C@@H](O)C[C@@]2(C)[C@H]1CC[C@]2(O)C(=O)CO [Prednisolone] | 0 | 0 | 0 | 0
CS(=O)(=O)c1ccc(C(=O)Nc2ccc(Cl)c(-c3ccccn3)c2)c(Cl)c1 [Vismodegib] | 2.2 | 0 | 0 | 0
Nc1cc(C(F)(F)F)c(-c2cc(N3CCOCC3)nc(N3CCOCC3)n2)cn1 [Buparlisib] | 1.4 | 0 | 0.9 | 6.2
CC(C)C[C@H](NC(=O)[C@@H](COC(C)(C)C)NC(=O)[C@H](Cc1ccc(O)cc1)NC(=O)[C@H](CO)NC(=O)[C@H](Cc1c[nH]c2ccccc12)NC(=O)[C@H](Cc1cnc[nH]1)NC(=O)[C@@H]1CCC(=O)N1)C(=O)N[C@@H](CCCNC(=N)N)C(=O)N1CCC[C@H]1C(=O)NNC(N)=O [Goserelin] | 0 | 0 | 0 | 0
CS(=O)(=O)OCCCCOS(C)(=O)=O [Busulfan] | 0 | 0 | 0 | 0.2
N#Cc1ccc2[nH]c(O)c(-c3ccc(CN4CCOCC4)cn3)c2c1 [AZD-1080] | 0 | 0 | 0 | 0
Clc1ccc(Nc2nnc(Cc3ccncc3)c3ccccc23)cc1 [Vatalanib] | 0 | 0 | 0 | 0
Cn1nccc1Nc1nccc(-c2ccn([C@H](CO)c3ccc(Cl)c(F)c3)c(=O)c2)n1 [GDC-0994] | 0 | 3 | 0 | 3.5
CN(C)c1nc(N(C)C)nc(N(C)C)n1 [Altretamine] | 0 | 0 | 0 | 0
C/C(=C\c1csc(C)n1)[C@@H]1C[C@@H]2O[C@]2(C)CCC[C@H](C)[C@H](O)[C@@H](C)C(=O)C(C)(C)[C@@H](O)CC(=O)O1 [Patupilone] | 8.3 | 5.8 | 0 | 12.3
O=C(NOC[C@H](O)CO)c1ccc(F)c(F)c1Nc1ccc(I)cc1F | 2 | 4.7 | 0 | 9.8
FC(F)c1nc2ccccc2n1-c1nc(N2CCOCC2)nc(N2CCOCC2)n1 [ZSTK474] | 0 | 0 | 0.2 | 6.1
CCN(c1cc(-c2ccc(CN3CCOCC3)cc2)cc(C(=O)NCc2c(C)cc(C)[nH]c2=O)c1C)C1CCOCC1 [Tazemetostat] | 0 | 0 | 1 | 0
CNC(=O)c1ccc(N2C(=S)N(c3ccc(C#N)c(C(F)(F)F)c3)C(=O)C23CCC3)cc1F [RD162] | 0.8 | 0 | 0 | 0
CCn1c(C(=O)N(C2CC2)C2CC2)cc2c3c(ncn3C)c(Nc3cc(C)n(C)n3)nc21 | 0 | 0 | 0 | 0
O=c1[nH]c(=O)n([C@H]2C[C@H](O)[C@@H](CO)O2)cc1F [Floxuridine] | 0 | 0.2 | 14.6 | 19.7
CC(=O)c1cnc2ccc(-c3cc(Cl)c(O)c(Cl)c3)nc2c1N[C@H]1CC[C@H](CN(C)C)CC1 [OTSSP167] | 0 | 0.2 | 22.4 | 9.1

SMILES | drug sensitivity score ([1]; shRNA: shPPFIA1_1) [DSS] | drug sensitivity score ([1]; shRNA: shScramble) [DSS] | drug sensitivity score ([2]; shRNA: shPPFIA1_1) [DSS] | drug sensitivity score ([2]; shRNA: shScramble) [DSS]
Cc1ccc(Nc2nccc(N(C)c3ccc4c(C)n(C)nc4c3)n2)cc1S(N)(=O)=O [Pazopanib] | 0 | 0 | 2.7 | 7.9
COc1cc2c(N3CCN(C(=O)Nc4ccc(OC(C)C)cc4)CC3)ncnc2cc1OCCCN1CCCCC1 [Tandutinib] | 0 | 0 | 9.9 | 6.5
Cc1ccc(NC(=O)c2ccc(CN3CCN(C)CC3)cc2)cc1Nc1nccc(-c2cccnc2)n1 [Imatinib] | 1.4 | 0 | 1.5 | 0
CNC(=O)c1ccc2cc([C@@]3(O)CCn4cncc43)ccc2c1 [Orteronel] | 0 | 0 | 0 | 0
Cc1csc(-c2nnc(Nc3ccc(Oc4ncccc4-c4ccnc(N)n4)cc3)c3ccccc23)c1 [AMG-900] | 0 | 0 | 0 | 0.3
CC(=O)Nc1ccc(C(=O)Nc2ccccc2N)cc1 [Tacedinaline] | 0 | 0 | 0 | 0
CCc1nc(-c2cccc(C)c2)c(-c2ccnc(NC(=O)c3ccccc3)c2)s1 [TAK-715] | 0.3 | 0 | 0 | 0.8
Clc1ccccc1C(c1ccccc1)(c1ccccc1)n1cccn1 [TRAM-34] | 0 | 0 | 0 | 0
O=C(Cc1ccc(-c2ccc(OCCN3CCOCC3)cc2)cn1)NCc1ccccc1 [KX2-391] | 5.5 | 1.8 | 2.1 | 8.2
O=C(O)CCCc1ccc(N(CCCl)CCCl)cc1 [Chlorambucil] | 0 | 0 | 0 | 0
S=P(N1CC1)(N1CC1)N1CC1 [Thio-TEPA] | 0 | 0 | 0.9 | 0.9
CC(C)(C)c1nc(-c2cccc(NS(=O)(=O)c3c(F)cccc3F)c2F)c(-c2ccnc(N)n2)s1 [Dabrafenib] | 0.9 | 0.9 | 0 | 0
Cc1cc(-c2ncc(-c3cccnc3)cc2/C=C/c2ccccc2)cnc1-c1cccnc1 [Pyridoclax] | 0.3 | 0 | 1.9 | 5.9
CC(O)(CS(=O)(=O)c1ccc(F)cc1)C(=O)Nc1ccc(C#N)c(C(F)(F)F)c1 (configuration not stated) [Bicalutamide] | 0 | 0 | 0 | 0.2
Cc1c(C(=O)Nc2ccc(N3C[C@@H](C)O[C@@H](C)C3)nc2)cccc1-c1ccc(OC(F)(F)F)cc1 [Sonidegib] | 0 | 0 | 1.1 | 2.4
NC(=O)Nc1cc(-c2cccc(F)c2)sc1C(=O)N[C@H]1CCCNC1 [AZD7762] | 2.8 | 0.1 | 4.5 | 5.7
CCn1c(-c2nonc2N)nc2c(C#CC(C)(C)O)ncc(OC[C@H]3CCCNC3)c21 | 0 | 0 | 0 | 0.2
COc1cccc2c1C(=O)c1c(O)c3c(c(O)c1C2=O)C[C@@](O)(C(=O)CO)C[C@@H]3O[C@H]1C[C@H](N)[C@H](O)[C@H](C)O1 [Doxorubicin] | 0 | 0 | 1.4 | 6.8
CC(C)(C)c1cnc(CSc2cnc(NC(=O)C3CCNCC3)s2)o1 [SNS-032] | 10.5 | 6.3 | 5.8 | 13.1
C=CCn1c(=O)c2cnc(Nc3ccc(N4CCN(C)CC4)cc3)nc2n1-c1cccc(C(C)(C)O)n1 [MK1775] | 9.4 | 7.6 | 5.1 | 7.5
Cn1cc(-c2ccc3nnc(C(F)(F)c4ccc5ncccc5c4)n3n2)cn1 | 0 | 0 | 0 | 6.9
CC(C)N(C[C@H]1O[C@@H](n2cnc3c(N)ncnc32)[C@H](O)[C@@H]1O)[C@H]1C[C@@H](CCc2nc3cc(C(C)(C)C)ccc3[nH]2)C1 [Pinometostat] | 0 | 0 | 0 | 0

SMILES | drug sensitivity score ([1]; shRNA: shPPFIA1_1) [DSS] | drug sensitivity score ([1]; shRNA: shScramble) [DSS] | drug sensitivity score ([2]; shRNA: shPPFIA1_1) [DSS] | drug sensitivity score ([2]; shRNA: shScramble) [DSS]
O=C(/C=C\n1cnc(-c2cc(C(F)(F)F)cc(C(F)(F)F)c2)n1)NNc1ccccn1 [Verdinexor] | 4.4 | 4.2 | 0 | 5.7
O=C(/C=C/c1cccc(S(=O)(=O)Nc2ccccc2)c1)NO [Belinostat] | 14.9 | 8.1 | 8.7 | 10.2
CN(C)C(=N)NC(=N)N [Metformin] | 0 | 0 | 0 | 0
COc1cc2/c(=N/c3ccc(Br)cc3F)nc[nH]c2cc1OCC1CCN(C)CC1 [Vandetanib] | 0 | 2 | 3.6 | 0
CNC(=O)c1cccc2cc(Oc3ccnc4cc(OCC5(N)CC5)c(OC)cc34)ccc12 [Lucitanib] | 0.3 | 1.2 | 0 | 0.7
CC1(C)CCC(c2ccc(Cl)cc2)=C(CN2CCN(c3ccc(C(=O)NS(=O)(=O)c4ccc(N[C@H](CCN5CCOCC5)CSc5ccccc5)c(S(=O)(=O)C(F)(F)F)c4)cc3)CC2)C1 [Navitoclax] | 15.2 | 12.4 | 4.4 | 4.4
CCC(C)(C)C(=O)O[C@H]1C[C@@H](C)C=C2C=C[C@H](C)[C@H](CC[C@@H]3C[C@@H](O)CC(=O)O3)[C@H]21 [Simvastatin] | – | – | 0 | 2.8
C#Cc1cccc(Nc2ncnc3cc4c(cc23)OCCOCCOCCO4)c1 [Icotinib] | 0 | 0 | 6.2 | 3
CN(C)CCN1C(=O)c2cccc3cc(N)cc(c23)C1=O [Amonafide] | 1 | 2.5 | 3.5 | 8.2
CC[C@H](NC(=O)[C@H](C)NC)C(=O)N1C[C@@H](O)C[C@H]1Cc1c(-c2[nH]c3cc(F)ccc3c2C[C@@H]2C[C@H](O)CN2C(=O)[C@H](CC)NC(=O)[C@H](C)NC)[nH]c2cc(F)ccc12 [Birinapant] | 31.3 | 22.4 | 20.3 | 13.2
COc1ccc(Cn2ccc3ccc(C(=O)NO)cc32)cc1 | 10.5 | 0 | 0 | 0
CCN(CC)C(=S)SSC(=S)N(CC)CC [Disulfiram] | 6.4 | 7 | 6.5 | 14.3
CC(C)NC(=O)COc1cccc(-c2nc(Nc3ccc4[nH]ncc4c3)c3ccccc3n2)c1 [SLx-2119] | 0 | 0 | 0 | 0
CCCS(=O)(=O)Nc1ccc(F)c(C(=O)c2c[nH]c3ncc(-c4ccc(Cl)cc4)cc23)c1F [Vemurafenib] | 0 | 1.8 | 0 | 0
COc1cc(NS(C)(=O)=O)ccc1Nc1c2ccccc2nc2ccccc12 [Amsacrine] | 2 | 7.4 | 4.8 | 8.6
CCCNC(=O)Nc1ccc(Oc2ncnc3cc(OC)c(OC)cc23)cc1Cl [KRN-633] | 0 | 0 | 0 | 0.9
COc1nc(N)nc2c1ncn2[C@@H]1O[C@H](CO)[C@@H](O)[C@@H]1O [Nelarabine] | 0 | 0 | 0 | 0
COc1ccc2c(OCc3nnc4ccc(-c5ccccc5)nn34)ccnc2c1 [AMG-208] | 0 | 0 | 1.9 | 8.6
COCC[n+]1c2c(n(Cc3cnccn3)c1C)C(=O)c1ccccc1C2=O [YM155] | 20.5 | 34.6 | 24.1 | 33.4
Cc1ccc(C(=O)Nc2ccc(CN3CCN(C)CC3)c(C(F)(F)F)c2)cc1C#Cc1cnc2cccnn12 [Ponatinib] | – | – | 0.1 | 3.6
